Each structure is given as a SMILES string.

The values below come from US10399971B2, “Compound for treating or preventing hyperuricemia or gout” (JIANGSU ATOM BIOSCIENCE AND PHARMACEUTICAL CO., LTD., priority 2015, dated 2019).

Common to all, as to assay type: cell-based
The target in one assay is T1, hURAT1 (Homo sapiens, UniProt Q96S37).
T1 sequence (Q96S37 1-553): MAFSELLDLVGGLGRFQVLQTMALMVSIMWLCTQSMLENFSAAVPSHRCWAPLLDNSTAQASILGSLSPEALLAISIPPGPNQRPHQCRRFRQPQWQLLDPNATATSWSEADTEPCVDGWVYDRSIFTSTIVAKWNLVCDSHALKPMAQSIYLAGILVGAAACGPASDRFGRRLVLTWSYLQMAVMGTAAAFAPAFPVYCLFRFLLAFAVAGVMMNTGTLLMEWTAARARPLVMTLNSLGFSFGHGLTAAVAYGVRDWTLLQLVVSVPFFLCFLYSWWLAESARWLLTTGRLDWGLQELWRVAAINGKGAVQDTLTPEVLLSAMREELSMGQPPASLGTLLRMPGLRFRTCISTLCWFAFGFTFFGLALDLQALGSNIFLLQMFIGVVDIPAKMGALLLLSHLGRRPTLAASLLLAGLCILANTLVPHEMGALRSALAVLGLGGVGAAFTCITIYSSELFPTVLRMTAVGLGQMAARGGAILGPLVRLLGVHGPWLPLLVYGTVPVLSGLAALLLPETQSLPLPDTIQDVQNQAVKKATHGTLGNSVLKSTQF
Nature of the assay: Inhibition assay of uric acid transport in HEK293-hURAT1 transfection cell line. The note with it: 500 nM, HEK293-hURAT1 transfection cell line, 14C-uric acid, average of three tests; for inhibition at 0.5 µM: read-out: Inhibitory rates of uric acid transport, ±SD (%). The method, then: 2.1 Construction of a HEK293 stable cell line with high expression of hURAT1: The plasmid pCMV6-hURAT1 was transfected into HEK293 cells, then the stable strain was obtained by the G418 (final concentration 500 μg/mL) resistance screening, which is the high expression of hURAT1 transporter membrane protein.
2.2 To a coated 24-well plate was added 200 μL of 0.1 mg/mL poly-lysine per well and the plate was left overnight. Poly-lysine was removed from wells. The wells were cleaned thoroughly with aseptic water and dried for use.
2.3 To the above coated 24 well plate was added HEK293-hURAT1 stable cells (2×10^5 cells per well). The cells was cultured at 37° C. under 5% CO2 for 3 days.
The solution was fully mixed to give HBSS buffer (pH value: 7.4). The buffer was stored at −20° C.
2.5 The HBSS buffer was warmed to 37° C. in a water bath. Washed cells with HBSS twice, added 160 μL of HBSS and 20 μL test compound per well. The final concentration of tested compound per well is 500 nM. The blank control well contains only 180 μL of HBSS without tested compound. The plate was placed at room temperature for 30 min.
2.6 To each well was added 20 μL of 50 μM ^14C-Uric acid. The plate was placed at room temperature for 20 min.
2.7 The solution in each well was removed and the cells in each well were washed with pre-cooled HBSS buffer. To each well was added 0.2 M NaOH to dissolve the cells. The solution containing cell fragments was collected and the right amount of scintillation liquid was added.
The formula for calculating the inhibitory rate of uric acid transport for compounds was shown as below: […]

The test system of assay [1] is human normal liver cell line L-02. Nature of the assay: Cytotoxicity test on human normal liver cell line L-02 (Alamar Blue). The note with it: L02, L-02 cells, 120 h incubation, cell viability, read-out: half inhibitory concentration (IC50) against L-02. The method, then: (§1) 2.1 The normal liver cell lines L-02 and WRL-68 were cultured with DMEM culture medium (containing 10% of fetal bovine serum, 100 U/mL of penicillin and 0.1 mg/mL of streptomycin) in an incubator under 5% CO2 at 37° C. until the cell density was about 90%, respectively.
(§2) 2.3 Tested compounds and benzbromarone at different concentration gradients were prepared by using the DMEM culture medium and added into wells at 100 μL/well as compounds wells. The DMEM culture medium was added into wells at 100 μL/well without tested compound as negative control wells.
(§3) This 10× Alamar Blue solution was diluted into 1× Alamar Blue solution with phenol red free DMEM culture medium before use.
(§4) 2.5 The cells were washed with PBS (0.1 M, pH=7.4) twice. The Alamar Blue solution was added into wells at 100 μL/well. 100 μL of Alamar Blue solution was added into wells without cells to serve as blank control wells. The 96-well plate was placed in an incubator under 5% CO2 at 37° C. for 3 h. Each concentration of compound was repeated three times during the test.
(§5) The fluorescence value of the cells containing compound is the F(test compound); the fluorescence value of the cells without compound as blank control is the F(blank control); the fluorescent value of the cells from negative control group is F(negative control). The average value and standard deviation of cell viability of three repeated concentrations was calculated by the following formula: […]
(§6) 2.7 The half inhibitory concentration (IC50) of the compound for the cells L-02 and WRL-68 was obtained from the cell viability by Prism Graph software.

The test system of assay [2] is human normal liver cell line WRL-68. Nature of the assay: Cytotoxicity test on human normal liver cell line WRL-68 (Alamar Blue). The settings on record: WRL68, WRL-68 cells, 120 h incubation, cell viability, read-out: half inhibitory concentration (IC50) against WRL-68. How it is done: as §1, §2, §3, §4, §5, §6
In general terms: Resazurin is reduced to fluorescent resorufin, in cell work by metabolically active cells.

`CCc1nc2ccccn2c1C(=O)c1cc(Br)c(O)c(Br)c1` [Compound 4, (3,5-dibromo-4-hydroxyphenyl)(2-ethylimidazo[1,2-a]-pyridin-3-yl)methanone]: the inhibition at 0.5 µM on hURAT1 is 71.7 ± 1.84%. Besides, the IC50 in assay [1] and in assay [2] was above 100 µM throughout.
Take `CCc1nc2ccccn2c1C(=O)c1cc(I)c(O)c(I)c1` [Compound 5, (2-ethylimidazo[1,2-a]pyridine-3-yl)(4-hydroxy-3,5-diiodophenyl)methanone]: on hURAT1, the inhibition at 0.5 µM is 63 ± 3.33%. The IC50 in assay [1] and in assay [2] was above 100 µM in each case.
With `CCc1nc2ccccn2c1C(=O)c1cc(Cl)c(O)c(I)c1` [Compound 9, (3-chloro-4-hydroxy-5-iodophenyl)(2-ethylimidazo[1,2-a]-pyridin-3-yl)methanone], on hURAT1, the inhibition at 0.5 µM was found to be 60.6 ± 0.82%. Moreover, the IC50 in assay [1] and in assay [2] was above 100 µM each time.
For `CCc1nc2ccccn2c1C(=O)c1cc(Br)c(O)c(I)c1` [Compound 11, (3-bromo-4-hydroxy-5-iodophenyl)(2-ethylimidazo[1,2-a]-pyridine-3-yl)methanone], the inhibition at 0.5 µM on hURAT1 was 63.5 ± 0.95%.
Same read-out and setting: under `CCc1nc2ccccn2c1C(=O)c1cc(C)c(O)c(I)c1` [Compound 12, (2-ethylimidazo[1,2-a]pyridine-3-yl)(4-hydroxy-3-iodo-5-methylphenyl)methanone] stands 56.24 ± 0.12%.
On to `CCc1nc2ccc(F)cn2c1C(=O)c1cc(Cl)c(O)c(Br)c1` [Compound 18, (3-bromo-5-chloro-4-hydroxyphenyl)(2-ethyl-6-fluoroimidazo[1,2-a]pyridine-3-yl)methanone], for which, at hURAT1, the inhibition at 0.5 µM was 65.4 ± 0.71%. Further, the IC50 in assay [1] and in assay [2] was above 100 µM each time.
In the case of `CCc1nc2ccc(F)cn2c1C(=O)c1cc(Cl)c(O)c(I)c1` [Compound 19, (3-chloro-4-hydroxy-5-iodophenyl)(2-ethyl-6-fluoroimidazo[1,2-a]pyridine-3-yl)methanone], the inhibition at 0.5 µM at hURAT1 was 68.8 ± 2.83%.
Still for that read-out and setting: under `CCc1nc2ccccn2c1C(=O)c1cc(Br)c(O)c(C(F)(F)F)c1` [Compound 29, (3-bromo-4-hydroxy-5-(trifluoromethyl)phenyl)-(2-ethylimidazo[1,2-a]pyridine-3-yl)methanone] stands 64.35 ± 0.12%; under `CCc1nc2ccc(C)cn2c1C(=O)c1cc(Br)c(O)c(Br)c1` [Compound 30, (3,5-dibromo-4-hydroxyphenyl)(2-ethyl-6-methylimidazo[1,2-a]pyridine-3-yl)methanone], 68 ± 1.49%.
Consider `CCc1nc2ccc(OC)cn2c1C(=O)c1cc(Br)c(O)c(Br)c1` [Compound 33, (3,5-dibromo-4-hydroxyphenyl)(2-ethyl-6-methoxyimidazo[1,2-a]pyridine-3-yl)methanone], for which the inhibition at 0.5 µM on hURAT1 worked out at 65.06 ± 0.39%. The IC50 in assay [1] and in assay [2] was above 100 µM in each case.
Turning to `CCc1nc2ccccn2c1C(=O)c1cc(Br)c(O)c(C#N)c1` [Compound 38, 3-bromo-5-(2-ethylimidazo[1,2-a]pyridine-3-carbonyl)-2-hydroxybenzonitrile], the inhibition at 0.5 µM on hURAT1 is 62.4 ± 0.72%.
On to `CCc1nc2ccccn2c1C(=O)c1cc(I)c(O)c(C#N)c1` [Compound 39, 5-(2-ethylimidazo[1,2-a]pyridine-3-carbonyl)-2-hydroxy-3-iodobenzonitrile], for which the inhibition at 0.5 µM at hURAT1 stood at 64.1 ± 2.25%.
On to `CCCc1nc2ccccn2c1C(=O)c1cc(Br)c(O)c(Br)c1` [Compound 41, (3,5-dibromo-4-hydroxyphenyl)(2-propylimidazo[1,2-a]-pyridine-3-yl)methanone], for which the inhibition at 0.5 µM on hURAT1 is 55.5 ± 1.02%.
`CCc1nc2ccccn2c1C(=O)c1cc(Cl)c(O)c(Br)c1` [Compound 45, (3-bromo-5-chloro-4-hydroxyphenyl)(2-ethylimidazo[1,2-a]-pyridin-3-yl)methanone]: at hURAT1, the inhibition at 0.5 µM was 62.9 ± 3.34%. For the same compound, the IC50 in assay [1] and in assay [2] was above 100 µM in each case.
In the case of `CCc1nc2ccc(F)cn2c1C(=O)c1cc(F)c(O)c(I)c1` [Compound 51, (2-ethyl-6-fluoroimidazo[1,2-a]pyridin-3-yl)(3-fluoro-4-hydroxy-5-iodophenyl)methanone], at hURAT1, the inhibition at 0.5 µM is 61.3 ± 1.1%. For the same compound, the IC50 in assay [1] and in assay [2] was above 100 µM each time.
Consider `CCc1nc2ccc(O)cn2c1C(=O)c1cc(Br)c(O)c(Br)c1` [Compound 52, (3,5-dibromo-4-hydroxyphenyl)(2-ethyl-6-hydroxyimidazo-[1,2-a]pyridin-3-yl)methanone], for which, at hURAT1, the inhibition at 0.5 µM was found to be 57.5 ± 3.61%. In addition, the IC50 in assay [1] and in assay [2] was above 100 µM throughout.
Turning to `CCc1nc2cc(C)c(Br)cn2c1C(=O)c1cc(Br)c(O)c(Br)c1` [Compound 56, (6-bromo-2-ethyl-7-methylimidazo[1,2-a]pyridin-3-yl)-(3,5-dibromo-4-hydroxyphenyl)methanone], the inhibition at 0.5 µM on hURAT1 was 62.8 ± 9.34%. The IC50 in assay [1] and in assay [2] was above 100 µM in each case.
Take `[2H]c1ccc2nc(CC)c(C(=O)c3cc(Br)c(O)c(Br)c3)n2c1` [Compound 69, (6-deuterium-2-ethylimidazo[1,2-a]pyridine-3-yl)(3,5-dibromo-4-hydroxyphenyl)methanone]: the “Inhibitory rates of uric acid transport, ±SD (%)” value at hURAT1 is recorded as 71.10 ± 2.50%.
In the case of `CCc1nc2ccccn2c1C(=O)c1cc(I)c(O)c(C#N)c1` [Compound 75, 5-(2-ethylimidazo[1,2-a]pyridine-3-carbonyl)-2-hydroxy-3-iodobenzonitrile hydrogen chloride], at hURAT1 (0.5 µM), the “Inhibitory rates of uric acid transport, ±SD (%)” value was found to be 62.58 ± 0.84%. For the same compound, the IC50 in assay [1] and in assay [2] was above 100 µM each time.
